System: antibody specific to carbamazepine
Assay: Interference from other drugs in the carbamazepine ELISA assay
Format: binding, rabbit
Conditions: chemical tested at 10.0 μg/ml; procedures of Example 4 (ELISA); duplicate
Source text: The Carbamazepine ELISA was developed with the antibody generated from Example 3. This assay is a competitive micro-immunoassay for determination of carbamazepine in a fluid sample. Carbamazepine in the fluid sample and carbamazepine derivative linked with the enzyme (HRP)-conjugate compete for the finite sites of the antibody coated on the solid surface of the microwell. If little or no carbamazepine is present in the fluid sample, more enzyme labeled carbamazepine derivative will bind to the antibody on the solid surface. Conversely, if a large or a significant amount of carbamazepine is present in the fluid sample, less enzyme labeled carbamazepine derivative will bind to the antibody, producing less color signal. The absorbance produced is inversely proportional to the amount of carbamazepine in the fluid sample.
Interference from other drugs was tested using 30 frequently used chemicals and medicines, at concentrations of 10.0 μg/ml.
The samples were tested in duplicate, following the procedures used in Example 4. All 30 samples produced a negative test result. Thus, the immunoassay of the present disclosure is specific to carbamazepine.

Row | Compound | Equivalent Carbamazepine Conc.
1 | CN1C(=O)CN=C(c2ccccc2)c2cc(Cl)ccc21 [Diazepam] | <0.1 µg/mL
2 | Cn1c(=O)c2c(ncn2C)n(C)c1=O [Caffeine] | <0.1 µg/mL
3 | O=C(O)C1N=C(c2ccccc2)c2cc(Cl)ccc2NC1=O (centres unmarked) [Clorazepate] | <0.1 µg/mL
4 | Ecgonine | <0.1 µg/mL
5 | CC(=O)Oc1ccccc1C(=O)O [Acetylsalicylic Acid] | <0.1 µg/mL
6 | C=C[C@H]1C[N@@]2CC[C@H]1C[C@@H]2[C@@H](O)c1ccnc2ccc(OC)cc12 [Quinidine] | <0.1 µg/mL
7 | CCN(CC)CC(=O)Nc1c(C)cccc1C [Lidocaine] | <0.1 µg/mL
8 | CC(N)C(O)c1ccccc1 (centres unmarked) [Phenylpropanolamine] | <0.1 µg/mL
9 | CCC1(CCC(C)C)C(=O)NC(=O)NC1=O [Amobarbital] | <0.1 µg/mL
10 | CC(C)Cc1ccc(C(C)C(=O)O)cc1 (centres unmarked) [Ibuprofen] | <0.1 µg/mL
11 | Cc1cc(CC(=O)O)n(C)c1C(=O)c1ccc(Cl)cc1 [Zomepirac] | <0.1 µg/mL
12 | CC1(C)S[C@@H]2[C@H](NC(=O)[C@H](N)c3ccccc3)C(=O)N2[C@H]1C(=O)O [Ampicillin] | <0.1 µg/mL
13 | CNC[C@H](O)c1cccc(O)c1 [Phenylephrine] | <0.1 µg/mL
14 | CN(C)CCCN1c2ccccc2CCc2ccccc21 [Imipramine] | <0.1 µg/mL
15 | CN[C@@H](C)Cc1ccccc1 [d-Methamphetamine] | <0.1 µg/mL
16 | CCN(CC)CCNC(=O)c1ccc(N)cc1 [Procainamide] | <0.1 µg/mL
17 | Cc1ccc(C)c(OCCCC(C)(C)C(=O)O)c1 [Gemfibrozil] | <0.1 µg/mL
18 | Penicillin | <0.1 µg/mL
19 | COc1ccc2c3c1O[C@H]1C(=O)CC[C@H]4[C@@H](C2)N(C)CC[C@]314 [Hydrocodone] | <0.1 µg/mL
20 | NCCc1ccccc1 [beta-Phenylethylamine] | <0.1 µg/mL
21 | NC(=O)c1cccnc1 [Niacinamide] | <0.1 µg/mL
22 | CN1C(=O)CC[C@H]1c1cccnc1 [(−)-Cotinine] | <0.1 µg/mL
23 | CC(C(=O)O)c1cccc(Oc2ccccc2)c1 (centres unmarked) [Fenoprofen] | <0.1 µg/mL
24 | CCN(CC)CCOC(=O)c1ccc(N)cc1 [Procaine] | <0.1 µg/mL
25 | COc1ccc2cc([C@H](C)C(=O)O)ccc2c1 [Naproxen] | <0.1 µg/mL
26 | COC(=O)[C@@H]1[C@H]2CC[C@@H](C[C@@H]1O)N2C [Ecgonine Methyl Ester] | <0.1 µg/mL
27 | CN(C)CCCN1c2ccccc2Sc2ccc(Cl)cc21 [Chlorpromazine] | <0.1 µg/mL
28 | O=C(O)c1cc(O)ccc1O [Gentisic Acid] | <0.1 µg/mL
29 | CN[C@@H](C)[C@H](O)c1ccccc1 [(L)-Ephedrine] | <0.1 µg/mL
